In the METLIN SMRT retention time set (Domingo-Almenara et al. 2019) one finds RP-LC retention time data, which are given here for 80 compounds.

The data set in a line: gradient 5% acetonitrile 3 min, to 50% in 2 min, to 85% in 15 min, held 3 min, 100 µL/min. The following applies: column: Zorbax Extend-C18 2.1 x 50 mm; eluents: water / acetonitrile, 0.1% formic acid. In outline: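 Over 3 months, pure standards in mixtures of ~100 molecules were run by HPLC coupled to a quadrupole time-of-flight mass spectrometer in positive and negative ionization mode. The column was a Zorbax Extend-C18 (2.1 × 50 mm, 1.8 μm) at 100 μL/min, eluted with water and acetonitrile each holding 0.1% formic acid, with 40 μL dead and 900 μL dwell volumes. Retention time was determined from adduct peaks chosen by software and checked manually.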
With `COC(=O)C1C(=O)C2=C(CC1C)NC(C)=C(C(=O)OC(C)C)C2c1ccccc1F` (stereo not given), the RP-LC retention time is 954 s.
Under `CC1(C)CC(NC(=O)COc2ccccc2Cl)CC(C)(C)N1` stands 618 s.
`COc1ccc(Nc2cc(C)nc(N)n2)cc1` came in with an RP-LC retention time of 644 s.
Under `Cc1ccc2c(c1)N(S(C)(=O)=O)CCC(C(=O)NCCC1=CCCCC1)O2` (stereo not given) stands 993 s; under `CC(C)NC(=O)N1CCCC(c2cccc(C(=O)NCc3ccccc3F)c2)C1` (stereo not given), 854 s.
Under `CCNC(=O)c1cn(-c2ccc(SCC(=O)Nc3ccc(Cl)cc3F)nn2)cn1` stands 702 s.
`O=C(CN1C(=O)C2CCCCN2c2ccc(C(=O)N3CCCC3)cc21)NCc1ccc(F)cc1Cl` (stereo not given): the RP-LC retention time was 863 s.
Take `COc1ccc2c(c1)C1(CCN(C(=O)c3ccccc3F)C1)C(=O)N2C` (stereo not given): the RP-LC retention time came out at 752 s.
Under `COc1cc(OC)cc(C(=O)NC2CCN(c3cc(-c4ccccc4)[nH]n3)C2)c1` (stereo not given) stands 710 s; under `Cc1noc2ncn(CC(=O)NCc3ccccc3F)c(=O)c12`, 705 s; under `Cc1cc(C)n2nc(SCC(=O)Nc3ccccc3[N+](=O)[O-])nc2n1`, 686 s.
Under `CCCn1c(CCNC(=O)c2cc(C)cc(C)c2)nc2cccnc21` stands 716 s.
Consider `CC1=C(c2ccccc2)S(=O)(=O)N=C1N1CCCN(C(=O)NC2CCCCC2)CC1`, for which the RP-LC retention time came to 817 s.
Under `COc1ccc2oc(-c3noc(C(=O)NCCCN4CCCC4)n3)c(C)c2c1` stands 671 s; under `Cc1sc(NC(=O)C(C)C)nc1-c1ccc2c(c1)NC(=O)CO2`, 750 s; under `CCCc1ccc(S(=O)(=O)N2CCc3c(c(-c4nnc(-c5ccc(C)cc5)o4)nn3C)C2)cc1`, 1160 s.
As to `O=C(c1c(-c2ccccc2)nnc2ccccc12)N1CCN(c2ccccn2)CC1`, the RP-LC retention time is 605 s.
As to `COC(=O)c1cc(OCC(=O)NC2CCCCC2)c2cc(OC)c(OC)cc2n1`, the RP-LC retention time came out at 725 s.
Under `CCN1C(=O)C2CC3(CCN(C(=O)CC(C)C)CC3)CN2C1=O` (stereo not given) stands 692 s; under `O=C(CN1C(=O)C(C(=O)N2CCCC2)Sc2ccccc21)N1CCN(c2ccccc2)CC1` (stereo not given), 842 s; under `CNC(=O)c1ccc(-c2nc3cc(NS(=O)(=O)c4cnc[nH]4)ccc3n2C)cc1`, 548 s.
The compound `Cc1csc(-c2cc(S(=O)(=O)NC3CCCC3)cn2CC(=O)N2CCCC2)n1` came in with an RP-LC retention time of 848 s.
In the case of `O=C(Cn1ccc2ccc(N3CCOCC3)nc21)NCC1CCCCC1`, the RP-LC retention time is 924 s.
Under `COc1cc(NC(=O)Cn2ccnc2-c2ccnc(N3CCOCC3)c2)cc(OC)c1` stands 625 s; under `O=C(NC1CCN(c2cc(-c3cccs3)[nH]n2)CC1)c1ccc(F)cc1F`, 769 s.
Under `Cc1ccc(C2c3[nH]c4ccccc4c3CCN2C(=O)Cc2cccs2)cc1` (stereo not given) stands 988 s.
Under `CCN1C(=O)C(C)(C(=O)Nc2cc(C)cc(C)c2)Oc2cccnc21` (stereo not given) stands 982 s; under `O=C1c2ccccc2C(=O)N1c1ncn[nH]1`, 667 s; under `Cn1nc(C(=O)N2CCN(c3ccccc3Cl)CC2)ccc1=O`, 727 s.
On to `CN1CCCn2cc(S(=O)(=O)NCc3ccccc3Cl)cc2C1=O`, for which the RP-LC retention time stood at 704 s.
Under `COCc1c(C(=O)O)nnn1-c1cccc(OC)c1` stands 668 s; under `CC(C)CN1Cc2ccccc2-n2ccnc2C12CCN(C(=O)c1ccccc1F)CC2`, 650 s.
For the compound `Cc1cc(N2CCC(NC(=O)Nc3ccc(Cl)cc3)C2=O)ccc1F` (stereo not given), the RP-LC retention time came to 920 s.
As to `Cc1ccccc1Nc1c(-c2cccc(Cl)c2)nc2c(C)cccn12`, the RP-LC retention time came to 802 s.
Under `CCn1c(=O)c(NCc2ccc(F)cc2Cl)nc2ccncc21` stands 661 s; under `Cc1ccn2c(NC(=O)C(C)(C)C)c(-c3ccc(F)cc3)nc2c1`, 648 s; under `Cc1ccc(C)c(CNC(=O)C2CCCN(c3cnc4nccnc4c3)C2)c1` (stereo not given), 759 s.
Consider `Fc1ccc(-c2ccc(CNCC3CCCO3)o2)cc1` (stereo not given), for which the RP-LC retention time is 649 s.
In turn, `CCOc1cccc(-c2noc(Cn3c(=O)n(Cc4ccc(OC)cc4)c(=O)c4sccc43)n2)c1` came in with an RP-LC retention time of 1060 s.
Under `COc1ccc(NS(=O)(=O)c2cc(-c3noc(C(=O)N4CCCC4)n3)sc2C)cc1OC` stands 842 s; under `COC(=O)CNC(=O)C1COc2ccc(NC(=O)c3ccc(Cl)cc3)cc2C1` (stereo not given), 794 s; under `Cc1ccc(CNC(=O)C2(C)CN(S(=O)(=O)c3ccccc3)CC(=O)N2C2CC2)cc1` (stereo not given), 783 s.
On to `CC(C)Cc1ccc(-c2csc(NC(=O)c3cnccn3)n2)cc1`, for which the RP-LC retention time came out at 1130 s.
Under `O=C1c2ccccc2S(=O)(=O)N1CC(O)COc1ccc(Cl)cc1Cl` (stereo not given) stands 900 s; under `Cc1c(Cl)cccc1NC(=O)NC1CCN(c2ccc(F)cc2)C1=O` (stereo not given), 864 s.
`Cn1cc2c3c(cccc31)CN(C(=O)c1ccccc1Cl)CC2`: the RP-LC retention time worked out at 975 s.
`CS(=O)(=O)N1C[C@H]2CCN(Cc3c(F)cccc3Cl)C[C@H]21` gave an RP-LC retention time of 571 s.
Under `CC(C)CC(=O)N1CCCC(COc2ccc(C(=O)NC(C)C)cc2)C1` (stereo not given) stands 827 s; under `Cc1cc(NC(=O)CN2CCc3[nH]c4c(C)ccc(C)c4c(=O)c3C2)ccc1F`, 666 s.
Under `CN1C(=O)COc2ccc(-c3csc(NC(=O)C4CCCO4)n3)cc21` (stereo not given) stands 762 s; under `Cc1ccc(N2C(=O)N(Cc3ccccc3F)S(=O)(=O)c3cccnc32)cc1`, 1050 s.
Under `CCCNC(=O)N1CCN(Cc2nc3cccnc3n2-c2ccc(CC)cc2)CC1` stands 641 s; under `COCC(=O)NC1CCC12CCN(C(=O)CC1CCCC1)CC2` (stereo not given), 722 s; under `COc1ccc(-c2nc3ncc4c(=O)n(CCc5c[nH]c6ccc(F)cc56)ccc4n3n2)cc1`, 935 s.
`Cc1cc(NCCCC(=O)NC2CC2)n2nc(-c3cccnc3)nc2n1`: the RP-LC retention time stood at 577 s.
As to `O=C(NCc1cccs1)c1ccc(-c2cccnc2)nc1`, the RP-LC retention time was found to be 614 s.
In the case of `O=C(c1ccc(-c2csc(C3CC3)n2)cc1)N1CCN(c2ncccn2)CC1`, the RP-LC retention time came out at 912 s.
Under `CCOC(=O)c1c(C)c(C(=O)CN(CC2CCCO2)C(=O)c2ccc(Cl)cc2)c(C)n1C` (stereo not given) stands 987 s.
Under `CC(C)(C)c1cc(C(=O)Nc2cc(F)ccc2F)nc2ccnn12` stands 1450 s; under `CCCn1ccc2sc(C)c(C(=O)NC(C)c3ccccc3)c2c1=O` (stereo not given), 900 s.
On to `CCN1C(=O)CN(C(=O)C2CC2)CC12CCOCC2`, for which the RP-LC retention time worked out at 584 s.
Under `COc1ccc(-c2csc(Cc3nc(-c4ccccc4Cl)no3)n2)cc1` stands 1160 s.
Under `Cc1oc(-c2[nH]ncc2C(=O)N2CCCCC2)cc1S(=O)(=O)Nc1ccc(F)c(F)c1` stands 780 s; under `O=c1c2ccccc2c(-c2nc(-c3ccncc3)no2)cn1-c1ccccc1`, 1050 s.
Under `Cc1ccc2cc(CCC(=O)N3CCN(C4CCCCC4)CC3)c(=O)[nH]c2c1` stands 610 s; under `CNC(=O)C1CCN(c2nc3ccc(-c4ccncc4)nc3s2)CC1`, 568 s; under `CC(=O)c1ccc(NC(=O)CCc2c(C)nn(-c3cc(N4CCCC4)ncn3)c2C)cc1`, 769 s.
The compound `O=C(NC1CCS(=O)(=O)C1)C1Cn2cccc2C(=O)N1Cc1ccccc1` (stereo not given) showed an RP-LC retention time of 652 s.
The compound `CCOC(=O)c1noc2ncnc(N3CCN(c4cccc(Cl)c4)CC3)c12` displayed an RP-LC retention time of 1150 s.
With `NC(=O)c1cccc2[nH]c(-c3ccc(C4CCCN4)cc3F)nc12` (stereo not given), the RP-LC retention time turned out to be 621 s.
Compound `Cn1cc2c(n1)c(=O)n(Cc1ccc(Cl)cc1)c1nn(Cc3ccccc3)c(=O)n21` came in with an RP-LC retention time of 960 s.
Under `CCCCNS(=O)(=O)c1cc(-c2[nH]ncc2C(=O)N2CCCC2)oc1C` stands 668 s; under `O=C(NCc1cccc(Cl)c1)c1cc(C2CC2)n2nccc2n1`, 974 s; under `CCc1ccc(NC(=O)N2CCC3(CC2)NC(=O)c2cc(C)ccc2N3C)cc1`, 874 s.
Turning to `Cc1cccc(Sc2nccnc2N2CCCC(C(=O)NCCCc3ccccc3)C2)c1` (stereo not given), the RP-LC retention time is 1190 s.
Under `Cc1ccc(-c2ccc(N3CCN(c4ccccn4)CC3)nn2)cc1S(=O)(=O)N1CCCCCC1` stands 716 s.
As to `Cc1[nH]c(-c2ccccc2)cc1C(=O)NC1CCCC1`, the RP-LC retention time was 845 s.
Under `CCN(c1ccccc1)S(=O)(=O)c1ccc2c(c1)N(C(C)=O)CCCS2` stands 937 s; under `COc1ccc(NC(=O)C2CCN(S(=O)(=O)c3ccc4c(c3)CCCC(=O)N4)CC2)cc1Cl`, 782 s.
Under `CCCCC(=O)N1C[C@H](c2nc(-c3ccccc3)no2)[C@@H](C)C1` stands 971 s.
